# Test results from patent publication US20050255537A1, “Method for monitoring treatment with a parathyroid hormone” (priority 1999, published 2005).
# System: BSAP and PICP serum levels, NTX urine levels
# Assay: Example 3 clinical trial of rhPTH(1-34) vs alendronate: bone markers
# Assay type: in vivo, human
# Conditions: alendronate 10 mg per day
# Procedure: • Number of Subjects: • rhPTH(1-34): 73 enrolled, 51 finished. • Alendronate (Fosamax®): 73 enrolled, 57 finished. • Diagnosis and Inclusion Criteria: Women aged 65±8 years, postmenopausal for 19±19 years, selected for a baseline spine bone mineral density of 0.8±0.1 and a T value of −2.2. Dosage and Administration: • Test Product (blinded) • rhPTH(1-34): 40 μg/day, given subcutaneously • Reference (Control) Therapy (blinded) • Alendronate (Fosamax®): 10 mg per patient per day • Duration of Treatment: • rhPTH(1-34): 12-18 months, with follow up from time of withdrawal of drug to 18 months of study. • Alendronate: 12-18 months, with follow up from time of withdrawal of drug to 18 months of study. • Criteria for Evaluation: Spine x-ray, serum biological markers (calcium, bone-specific alkaline phosphatase, procollagen I carboxy-terminal propeptide); urine makers (calcium, N-telopeptide, fir deoxypyridinoline); 1,25-dihydroxyvitamin D; bone mineral density spine, hip, wrist, and total body.
# Measures of BSAP, PICP, and NTX levels were determined for each patient through the course of therapy generally according to methods described above in Example 1.
smiles,measurement,setting,value
"NCCCC(O)(P(=O)(O)O)P(=O)(O)O [alendronate, reference compound]",PICP serum level,FIG. 8,a decrease in PICP was observed
same,NTX urine levels,FIG. 9,generally declined slightly during the first 6 months of the study and then remained diminished for the duration of the study
same,BSAP serum level,"after about 4 months, FIG. 7",A decrease in BSAP level was observed
